Results reported in publication PMC9572521, “Synthesis, Docking Studies and Pharmacological Evaluation of Serotoninergic Ligands Containing a 5-Norbornene-2-Carboxamide Nucleus” (Molecules, 2022).
Entries after “also recorded” stand apart in the source; their conditions may differ.

Legend:
5-HT2A receptor = 5-HT2A receptor (Rattus norvegicus, UniProt P14842); experiment: 5-HT2A competition binding assay ([3H]ketanserin, frontal cortex homogenates); settings: read-out: 5-HT2A Ki (95% CI)
D2 receptor = molecular target: T1, D2 receptor (Rattus norvegicus, UniProt P61169); experiment: Functional D2 receptor [35S]GTPγS assay (antagonist mode vs dopamine; basal for agonism); type: biochemical; settings: against 40 µM dopamine, rat striatal homogenate; read-out: D2 receptor antagonistic activity IC50 (95% CI);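 note: [35S]GTPγS binding counted by scintillation after 60 min at 30 °C, nonspecific binding defined with 100 µM unlabeled GTPγS, inhibition curves fitted by one-site nonlinear regression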
T1 construct: 15μg/mL of striatal homogenate was incubated in triplicate; from tissue; host or cells: rat striatum homogenate
T1 sequence (P61169 whole entry): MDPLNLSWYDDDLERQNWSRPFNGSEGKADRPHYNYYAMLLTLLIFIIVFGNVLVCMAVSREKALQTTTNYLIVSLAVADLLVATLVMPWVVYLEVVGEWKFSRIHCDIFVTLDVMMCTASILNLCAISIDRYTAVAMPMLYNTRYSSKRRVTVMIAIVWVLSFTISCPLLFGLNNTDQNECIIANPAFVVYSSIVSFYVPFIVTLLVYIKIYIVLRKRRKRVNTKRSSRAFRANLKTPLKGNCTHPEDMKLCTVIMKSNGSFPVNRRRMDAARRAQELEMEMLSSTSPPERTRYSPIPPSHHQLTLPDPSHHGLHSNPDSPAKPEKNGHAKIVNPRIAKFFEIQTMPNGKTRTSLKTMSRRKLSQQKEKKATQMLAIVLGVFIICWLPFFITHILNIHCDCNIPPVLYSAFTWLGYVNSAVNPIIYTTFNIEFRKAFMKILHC

mice = experiment: Spontaneous locomotor activity; type: in vivo, mouse
human 5-HT2C receptor = molecular target: T2, human 5-HT2C receptor (Homo sapiens, UniProt P28335); experiment: 5-HT2C competition binding assay ([3H]mesulergine, transfected cell membranes); settings: [3H]mesulergine, human 5-HT2C membranes; read-out: 5-HT2C Ki (95% CI)
T2 sequence (P28335 33-458): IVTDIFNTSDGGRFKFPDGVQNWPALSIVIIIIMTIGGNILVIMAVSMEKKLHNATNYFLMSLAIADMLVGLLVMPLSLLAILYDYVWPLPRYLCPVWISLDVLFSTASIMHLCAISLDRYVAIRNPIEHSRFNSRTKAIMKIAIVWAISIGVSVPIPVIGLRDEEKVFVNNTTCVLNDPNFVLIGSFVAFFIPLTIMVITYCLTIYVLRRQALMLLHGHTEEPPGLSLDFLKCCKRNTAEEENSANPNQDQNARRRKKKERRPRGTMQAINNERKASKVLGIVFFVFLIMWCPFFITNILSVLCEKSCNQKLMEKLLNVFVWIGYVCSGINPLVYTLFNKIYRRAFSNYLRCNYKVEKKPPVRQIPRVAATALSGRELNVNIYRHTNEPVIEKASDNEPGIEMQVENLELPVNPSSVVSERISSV

5-HT1A receptor = molecular target: T3, 5-HT1A receptor (Rattus norvegicus, UniProt P19327); experiment: Functional 5-HT1A receptor [35S]GTPγS assay (agonist mode); type: biochemical; settings: [35S]GTPγS, rat hippocampus homogenate;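 note: male Sprague-Dawley rat hippocampal membranes incubated 90 min at 37 °C, bound label counted by scintillation after filtration, non-specific binding defined with 100 µM unlabeled GTPγS, one-site curve fit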
T3 construct: 15 μg/mL of hippocampus homogenate was incubated in triplicate with 0.8 nM; from tissue; host or cells: rat hippocampus homogenate
T3 sequence (P19327 1-422): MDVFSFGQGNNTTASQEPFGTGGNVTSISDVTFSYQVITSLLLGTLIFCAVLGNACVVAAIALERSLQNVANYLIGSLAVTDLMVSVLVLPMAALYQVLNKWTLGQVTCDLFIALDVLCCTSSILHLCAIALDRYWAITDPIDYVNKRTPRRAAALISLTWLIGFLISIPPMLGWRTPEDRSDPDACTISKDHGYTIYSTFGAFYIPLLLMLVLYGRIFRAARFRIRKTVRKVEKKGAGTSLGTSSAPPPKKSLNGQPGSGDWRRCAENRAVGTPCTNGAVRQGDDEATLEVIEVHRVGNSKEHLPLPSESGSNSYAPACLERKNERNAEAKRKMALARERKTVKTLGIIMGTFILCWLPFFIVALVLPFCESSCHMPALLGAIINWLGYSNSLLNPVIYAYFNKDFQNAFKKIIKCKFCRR

Sequence of 5-HT2A receptor (P14842 whole entry): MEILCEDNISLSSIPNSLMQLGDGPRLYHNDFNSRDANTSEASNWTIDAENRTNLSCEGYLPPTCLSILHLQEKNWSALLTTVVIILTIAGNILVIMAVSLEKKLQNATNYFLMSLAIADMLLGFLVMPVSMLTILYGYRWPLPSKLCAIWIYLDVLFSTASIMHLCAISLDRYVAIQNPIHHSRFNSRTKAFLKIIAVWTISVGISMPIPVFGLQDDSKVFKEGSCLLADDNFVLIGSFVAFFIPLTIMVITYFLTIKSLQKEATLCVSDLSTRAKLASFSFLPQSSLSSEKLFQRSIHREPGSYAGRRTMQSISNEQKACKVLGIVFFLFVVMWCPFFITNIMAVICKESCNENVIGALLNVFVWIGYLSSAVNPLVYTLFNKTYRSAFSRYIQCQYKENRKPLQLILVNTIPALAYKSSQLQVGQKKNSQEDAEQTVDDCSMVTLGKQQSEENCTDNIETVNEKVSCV

Cc1cccc(N2CCN(CCCNC(=O)C3CC4C=CC3C4)CC2)c1C (stereo not drawn) [Norbo-4, endo-N-(3-(4-(2,3-dimethylphenyl)piperazin-1-yl)propyl)bicyclo[2.2.1]hept-5-ene-2-carboxamide]
Ki (5-HT2A receptor): 0.0333 µM | IC50 (D2 receptor): 33.1 µM | spontaneous locomotor activity (mice; 15 mg/kg i.p., after 6 min of observation): significant decrease in locomotor activity; also recorded: induced the same effect | spontaneous locomotor activity (mice; 15 mg/kg i.p., after 20 min of observation): significant decrease in locomotor activity; also recorded: induced the same effect | spontaneous locomotor activity (mice; 30 mg/kg i.p., after 6 min of observation): significant decrease in locomotor activity | spontaneous locomotor activity (mice; 30 mg/kg i.p., after 20 min of observation): significant decrease in locomotor activity | Ki (human 5-HT2C receptor): 2.09 µM | 5-HT1A Receptor G-Protein Stimulation Emax (%) ± SEM (5-HT1A receptor): 181 ± 2.4 % | EC50 (5-HT1A receptor; read-out: 5-HT1A Receptor G-Protein Stimulation EC50 (95% CI)): 0.181 µM
